Assay results taken from US20240239799A1, “(S)-1-(5-((PYRIDIN-3-YL)THIO)PYRAZIN-2-YL)-4'H,6'H-SPIRO[PIPERIDINE-4,5'-PYRROLO [1,2-B]PYRAZOL]-4'-AMINE DERIVATIVES AND SIMILAR COMPOUNDS AS SHP2 INHIBITORS FOR THE TREATMENT OF E.G. CANCER” (C.N.C.C.S. S.C.A.R.L. COLLEZIONE NAZIONALE DEI COMPOSTI …, priority 2021, published 2024).
pIC50: −log10 of the molar value.

Legend:
[1] = molecular target: T1, SHP-2 enzyme (Met1-Leu525) (Homo sapiens, UniProt Q06124); assay: SHP2 inhibition enzymatic assay (DiFMUP substrate, IRS1 peptide activation); type: biochemical; conditions: 0.5 nM SHP-2, 500 nM IRS1 peptide, 75 μM DiFMUP; read-out: SHP2wt - IC50
T1 construct: synthetized by Origene, Met1-Leu525, cat #TP750155; purchased Origene TP750155
T1 sequence (Q06124 1-525): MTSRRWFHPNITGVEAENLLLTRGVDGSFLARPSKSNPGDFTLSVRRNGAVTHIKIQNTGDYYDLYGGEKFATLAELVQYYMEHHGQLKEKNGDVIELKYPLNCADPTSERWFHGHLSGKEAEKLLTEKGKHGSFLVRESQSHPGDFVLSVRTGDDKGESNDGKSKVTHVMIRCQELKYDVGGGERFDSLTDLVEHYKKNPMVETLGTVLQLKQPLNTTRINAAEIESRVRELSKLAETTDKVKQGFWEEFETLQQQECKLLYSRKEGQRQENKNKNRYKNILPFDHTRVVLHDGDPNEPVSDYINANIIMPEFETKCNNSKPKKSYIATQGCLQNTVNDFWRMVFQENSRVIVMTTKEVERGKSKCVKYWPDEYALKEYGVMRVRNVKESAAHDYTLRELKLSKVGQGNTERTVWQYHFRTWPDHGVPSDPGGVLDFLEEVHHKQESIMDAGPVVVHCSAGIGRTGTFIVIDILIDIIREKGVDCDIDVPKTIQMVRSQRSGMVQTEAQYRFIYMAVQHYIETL
Experimental: Assay volume of 20 μL/well was assembled in 384 well black polystyrene low-binding microplates (Greiner), using the following buffer: 60 mM HEPES pH 7.2, 75 mM NaCl, 75 mM KCl, 1 mM EDTA pH 8, 0.05% tween-20, 5 mM DTT. The SHP-2 enzyme (synthetized by Origene, Met1-Leu525, cat #TP750155) was used at a final concentration of 0.5 nM.
Briefly, DMSO serially diluted testing compounds were transferred to the bottom of the assay plate. SHP2 was then added together with the IRS1 peptide 30 min post incubation, the DiFMUP substrate was added to the reaction and incubated 30 min at rt. […] The fluorescence was detected by a microplate reader (Envision, PerkinElmer) according to the DiFMUP excitation and emission wavelength. The lower the fluorescence the higher the SHP2 inhibition.
The percentage inhibition is fitted against the compound dilutions with a four-parameter logistic regression. The inflection point (i.e. the concentration at which half-maximal inhibition is achieved) is the IC50.

[2] = tested on: phospho-ERK1/2 (Thr202/Tyr204) in KYSE-520 cells; assay: Phospho-ERK cellular assay (TR-FRET); type: cell-based; conditions: Homo sapiens, KYSE-520, 2 h, KYSE-520 cells, 2 h at 37° C.; read-out: pERK IC50
Experimental: ERK phosphorylation was detected using the “Advanced phospho-ERK1/2 (Thr202/Tyr204)” TR-FRET kit (Cisbio, Cat #64AERPEG/H), following the manufacturer reagents and instructions.
Briefly, 20.000/well KYSE-520 cells (DSMZ ACC 371) were plated in 6 μL RPMI-1640 (Invitrogen) growth medium, into 384 white low-volume high base TC microplates (Greiner). After an overnight incubation, cells were treated with DMSO serial diluted compounds and incubated for 2 h at 37° C. After incubation, 2 μL/well of 4X Lysis Buffer (Cisbio 64KL1FDF), were added and incubated with cells for 30 min on gentle shaking. Finally, lysates were added with 2 μL/well of Eu cryptate (donor) and D2 (acceptor) conjugated antibodies (as provided by the Cisbio kit #64AERPEG/H) diluted 1:100 in Detection Buffer (as provided by the Cisbio kit #64AERPEG/H). Plates were then sealed and incubated at rt in the dark. After an overnight incubation, the TR-FRET signal was detected on a suitable reader (Envision, PerkinElmer). The lower the TR-FRET signal the higher the higher the SHP2 inhibition in cells.
The activity of each compound dilution was calculated as percentage between vehicle DMSO treated cells and no cells, 0% inhibition and 100% inhibition respectively. The percentage activity is fitted against the compound dilutions with a four-parameter logistic regression. The inflection point (i.e. the concentration at which half-maximal inhibition is achieved) is the IC50.

pIC50 [1]	pIC50 [2]	SMILES
6.52 to 7.30	> 7.00	Nc1nccc(Sc2cnc(N3CCC4(CC3)Cn3nc(CO)c(CO)c3[C@H]4N)c3cncn23)c1Cl [Example 28, (S)-(4′-amino-1-(5-((2-amino-3-chloropyridin-4-yl)thio)imidazo[1,5-a]pyrazin-8-yl)-4′H,6′H-spiro[piperidine-4,5′-pyrrolo[1,2-b]pyrazole]-2′,3′-diyl)dimethanol]
< 6.52	< 6.30	Nc1nccc(Sc2ncc(N3CCC4(CC3)Cn3nccc3[C@H]4N)n3cncc23)c1Cl [Example 30, (S)-1-(8-((2-amino-3-chloropyridin-4-yl)thio)imidazo[1,5-a]pyrazin-5-yl)-4′H,6′H-spiro[piperidine-4,5′-pyrrolo[1,2-b]pyrazol]-4′-amine]
≥ 7.30	6.30 to 7.00	N[C@@H]1c2ccnn2CC12CCN(c1ncc(Sc3ccn4ccnc4c3Cl)n3cncc13)CC2 [Example 32, (S)-1-(5-((8-chloroimidazo[1,2-a]pyridin-7-yl)thio)imidazo[1,5-a]pyrazin-8-yl)-4′H,6′H-spiro[piperidine-4,5′-pyrrolo[1,2-b]pyrazol]-4′-amine]
≥ 7.30	> 7.00	Cc1cc(C)n(-c2nccc(Sc3cnc(N4CCC5(CC4)Cn4nccc4[C@H]5N)cn3)c2Cl)n1 [Example 34, (S)-1-(5-((3-chloro-2-(3,5-dimethyl-1H-pyrazol-1-yl)pyridin-4-yl)thio)pyrazin-2-yl)-4′H,6′H-spiro[piperidine-4,5′-pyrrolo[1,2-b]pyrazol]-4′-amine]
≥ 7.30	6.30 to 7.00	Nc1nccc(Sc2ccc(N3CCC4(CC3)Cn3nccc3[C@H]4N)nn2)c1Cl [Example 35, (S)-1-(6-((2-amino-3-chloropyridin-4-yl)thio)pyridazin-3-yl)-4′H,6′H-spiro[piperidine-4,5′-pyrrolo[1,2-b]pyrazol]-4′-amine]
≥ 7.30	< 6.30	Nc1nc(N2CCC3(CC2)Cn2nncc2[C@H]3N)cnc1Sc1cccnc1C(F)(F)F [Example 36, (S)-1-(6-amino-5-((2-(trifluoromethyl)pyridin-3-yl)thio)pyrazin-2-yl)-4′H,6′H-spiro[piperidine-4,5′-pyrrolo[1,2-c][1,2,3]triazol]-4′-amine]
≥ 7.30	6.30 to 7.00	Nc1nc(N2CCC3(CC2)Cn2nncc2[C@H]3N)cnc1Sc1ccnc(N)c1Cl [Example 37, (S)-1-(6-amino-5-((2-amino-3-chloropyridin-4-yl)thio)pyrazin-2-yl)-4′H,6′H-spiro[piperidine-4,5′-pyrrolo[1,2-c][1,2,3]triazol]-4′-amine]
≥ 7.30	6.30 to 7.00	Nc1nccc(Sc2cnc(N3CCC4(CC3)Cn3nncc3[C@H]4N)n3ccnc23)c1Cl [Example 39, (S)-1-(8-((2-amino-3-chloropyridin-4-yl)thio)imidazo[1,2-c]pyrimidin-5-yl)-4′H,6′H-spiro[piperidine-4,5′-pyrrolo[1,2-c][1,2,3]triazol]-4′-amine]
≥ 7.30	> 7.00	Nc1nccc(-c2n[nH]c3nc(N4CCC5(CC4)Cn4nccc4[C@H]5N)cnc23)c1Cl [Example 40, (S)-1-(3-(2-amino-3-chloropyridin-4-yl)-1H-pyrazolo[3,4-b]pyrazin-6-yl)-4′H,6′H-spiro[piperidine-4,5′-pyrrolo[1,2-b]pyrazol]-4′-amine]
≥ 7.30	< 6.30	N[C@@H]1c2cnnn2CC12CCN(c1cnc3c(-c4cccc(Cl)c4Cl)n[nH]c3n1)CC2 [Example 41, (S)-1-(3-(2,3-dichlorophenyl)-1H-pyrazolo[3,4-b]pyrazin-6-yl)-4′H,6′H-spiro[piperidine-4,5′-pyrrolo[1,2-c][1,2,3]triazol]-4′-amine]
6.52 to 7.30	< 6.30	Nc1nccc(Sc2cnc(N3CCC4(CC3)Cn3cnnc3[C@H]4N)cn2)c1Cl [Example 42, (S)-1-(5-((2-amino-3-chloropyridin-4-yl)thio)pyrazin-2-yl)-5′H,7′H-spiro[piperidine-4,6′-pyrrolo[2,1-c][1,2,4]triazol]-7′-amine]
≥ 7.30	> 7.00	Cc1nc(N2CCC3(CC2)Cn2nccc2[C@H]3N)c(CO)nc1Sc1ccnc(N)c1Cl [Example 45, (S)-(6-((2-amino-3-chloropyridin-4-yl)thio)-3-(4′-amino-4′H,6′H-spiro[piperidine-4,5′-pyrrolo[1,2-b]pyrazol]-1-yl)-5-methylpyrazin-2-yl)methanol]
≥ 7.30	> 7.00	Cn1c(N2CCC3(CC2)Cn2nccc2[C@H]3N)nc2[nH]nc(-c3ccnc(N)c3Cl)c2c1=O [Example 46, (S)-3-(2-amino-3-chloropyridin-4-yl)-6-(4′-amino-4′H,6′H-spiro[piperidine-4,5′-pyrrolo[1,2-b]pyrazol]-1-yl)-5-methyl-1,5-dihydro-4H-pyrazolo[3,4-d]pyrimidin-4-one]
≥ 7.30	> 7.00	Nc1cnc(Sc2cnc(N3CCC4(CC3)Cn3nccc3[C@H]4N)cn2)c(Cl)n1 [Example 47, (S)-1-(5-((5-amino-3-chloropyrazin-2-yl)thio)pyrazin-2-yl)-4′H,6′H-spiro[piperidine-4,5′-pyrrolo[1,2-b]pyrazol]-4′-amine]
≥ 7.30	> 7.00	N[C@@H]1c2ccnn2CC12CCN(c1cnc(Sc3ccn4c(Cl)cnc4c3Cl)cn1)CC2 [Example 48, (S)-1-(5-((3,8-dichloroimidazo[1,2-a]pyridin-7-yl)thio)pyrazin-2-yl)-4′H,6′H-spiro[piperidine-4,5′-pyrrolo[1,2-b]pyrazol]-4′-amine]
≥ 7.30	> 7.00	N[C@@H]1c2c(F)cnn2CC12CCN(c1cnc(Sc3ccn4c(Cl)cnc4c3Cl)cn1)CC2 [Example 50, (S)-1-(5-((3,8-dichloroimidazo[1,2-a]pyridin-7-yl)thio)pyrazin-2-yl)-3′-fluoro-4′H,6′H-spiro[piperidine-4,5′-pyrrolo[1,2-b]pyrazol]-4′-amine]
≥ 7.30	6.30 to 7.00	N[C@@H]1c2ccnn2CC12CCN(c1cnc(Sc3ccn4cnnc4c3Cl)cn1)CC2 [Example 51, (S)-1-(5-((8-chloro-[1,2,4]triazolo[4,3-a]pyridin-7-yl)thio)pyrazin-2-yl)-4′H,6′H-spiro[piperidine-4,5′-pyrrolo[1,2-b]pyrazol]-4′-amine]
≥ 7.30	> 7.00	N[C@@H]1c2ccnn2CC12CCN(c1cnc(Sc3ccn4c([N+](=O)[O-])cnc4c3Cl)cn1)CC2 [Example 52, (S)-1-(5-((8-chloro-3-nitroimidazo[1,2-a]pyridin-7-yl)thio)pyrazin-2-yl)-4′H,6′H-spiro[piperidine-4,5′-pyrrolo[1,2-b]pyrazol]-4′-amine]
≥ 7.30	> 7.00	Nc1ccc(Sc2cnc(N3CCC4(CC3)Cn3nccc3[C@H]4N)cn2)c(Cl)n1 [Example 55, (S)-1-(5-((6-amino-2-chloropyridin-3-yl)thio)pyrazin-2-yl)-4′H,6′H-spiro[piperidine-4,5′-pyrrolo[1,2-b]pyrazol]-4′-amine]
≥ 7.30	> 7.00	N[C@@H]1c2ccnn2CC12CCN(c1cnc(Sc3ccc4nccn4c3Cl)cn1)CC2 [Example 56, (S)-1-(5-((5-chloroimidazo[1,2-a]pyridin-6-yl)thio)pyrazin-2-yl)-4′H,6′H-spiro[piperidine-4,5′-pyrrolo[1,2-b]pyrazol]-4′-amine]
